# Laboratory results: US20110212176A1, “CICLOPIROX AND CYTARABINE FOR THE TREATMENT OF LEUKEMIC DISORDERS” (priority 2008, published 2011)
# Entries after “also recorded” stand apart in the source; their conditions may differ.
# Tests used:
# leukemia cell lines = test: MTS cell viability assay in leukemia/lymphoma cell lines; type: cell-based; conditions: increasing concentrations, 72 hours
# Procedure: Leukemia (HL-60, RSV411, k562, Jurkat, U937), LYMPHOMA (MDAY-D2), solid tumour cell lines (PPC-1, HeLa, OVCAR-3, DU-145, HT-29) and GMO5757 human lung fibroblasts were cultured in RPMI 1640 medium. HepG2 hepatoma cells and MRC5 human lung fibroblasts were grown in Dulbecco modified Eagle medium. OCI-M2, OCI-AML2 and NB4 leukemia cell lines and OPM2, KMS11, LP1, UTMC2, KSM18 and OCIMy5 myeloma cell lines were maintained in Iscove Modified Dulbecco Medium. LF1 human lung fibroblasts were maintained in HAM medium. All media were supplemented with 10% fetal calf serum, 100 μg/mL of penicillin, and 100 units/mL of streptomycin (all from Hyclone, Logan, Utah). The cells were incubated at 37° C. in a humidified air atmosphere supplemented with 5% CO2.
# The CellTiter96 aqueous nonradioactive (MTS) assay was used to measure cell viability according to the manufacturer's instructions (Promega). Propidium iodide (PI) staining was used according to manufacturer's instructions (Biovision, Mountain view, Calif.).
# From this chemical screen, the antimicrobial CPX was identified. CPX is currently used for the topical treatment of cutaneous fungal infections. As an anti-fungal agent, the mechanism of action of CPX is not well understood, but appears related to binding intracellular iron and inhibiting iron containing enzymes. […] 72 hours after incubation, cell viability was measured by the MTS assay. […]
# [1] = test system: HeLa, PPC-1 and MDAY-D2 cells; test: Cell cycle analysis by PI staining and flow cytometry; type: cell-based; conditions: 5 μM CPX; eighteen hours; prior to the onset of cell death
# Procedure: (§1) FIG. 5: Cell cycle arrest, survivin decrease and p53 increase precede CPX induced cell death. A) HeLa, PPC-1 and MDAY-D2 cells were treated with 5 μM CPX or buffer control. Eighteen hours after incubation, cell cycle was analyzed by PI staining and Flow cytometry. B) NB4 and OCI-M2 cell lines were incubated with CPX (5 μM) for 48 hours. After incubation cells were harvested and nuclear proteins were isolated. Levels of p53 and the nuclear protein glucocorticoid receptor (GR) were measured by immunoblotting. C) Solid tumor (OVCAR3, HT-29, HepG2, DU145, HeLa) and leukemia (OCI-M2, OCI-AML2, NB4, HL-6) cell lines were treated with CPX (2.5 μM) or buffer control for 48 hours. After incubation, total protein was isolated. Levels of survivin and GAPDH were measured by immunoblotting.
# Cell-cycle analysis was performed as previously described (Blood 112(3):760). Briefly, cells were harvested, washed with cold PBS, re-suspended in 70% cold ethanol, and incubated overnight at −20° C. Cells were then treated with 100 ng/mL of DNase-free RNase (Invitrogen, Carlsbad, Calif.) at 37° C. for 30 minutes, washed with cold PBS, and re-suspended in PBS with 50 μg/mL of PI (Sigma). DNA content was analyzed by flow cytometry (FACSCalibur; BD Biosciences, San Jose, Calif.).
# [2] = test system: survivin, Cyclin D1, YY1 and FTII-D; test: Immunoblotting of protein expression after CPX treatment; type: cell-based; conditions: prior to the onset of cell death
# Procedure: as §1
# Total cell lysates were prepared from cells. […] Protein concentrations were measured by the Bradford assay (Anal Biochem. 1996; 236:221-228). […]
# Membranes were probed with polyclonal rabbit anti-human survivin (1 μg/mL) (NOVUS), monoclonal mouse anti-human p53 (0.5 μg/mL), polyclonal rabbit anti-human GR (0.5 μg/mL) both from (Santa Cruz Biotechnologies, CA), or with mouse anti-human GADPH (Trevigen, Gaithersburg, Md.). […] Detection was performed by the enhanced chemical luminescence method (Pierce, Rockford, Ill.).
# survivin promoter = test: Survivin promoter luciferase reporter screen in HeLa cells; type: cell-based, human; conditions: 5 μM, 24 hours
# From the text: The full-length survivin promoter (−1059 upstream of the initiating ATG) (NIEHS-SNPs, Environmental Genome Project, NIEHS ES15478, Department of Genome Sciences, Seattle, Wash.) was isolated from HeLa genomic DNA using the forward primer 5′-[…]-3′ (SEQ ID NO:1) and the reverse primer 5′-[…]-3′ (SEQ ID NO:2).
# The promoter was sub-cloned into the GL4.20 firefly luciferase reporter vector (Promega Corporation, Madison, Wis.). Clones were sequence-verified for orientation and integrity using a CEQ 8000 Genetic Analysis System (Beckman, Mississauga, ON, Canada). […]
# (A) HeLa cells stably overexpressing the survivin promoter driving luciferase (15000 cells/well) were plated in 96-well plates. […] After incubation, survivin promoter activity was assessed by the luciferase assay described below. […]
# Luciferase activity was measured according to the manufacturer's instructions and as previously described (Promega, Madison, Wis.) (Mao Blood). […] After 10-minutes incubation, an equal volume of Bright-Glo Luciferase substrate (Promega) was added, and the luminescence signal was detected with a 96-well Luminoskan luminescence plate reader (Thermo Fisher Scientific, Waltham, Mass.) with 5-seconds integration time. […]
# [3] = test system: OCI-AML2, K562 human leukemia cells and MDAY-D2 murine leukemia cells; type: in vivo; conditions: CPX 25 mg/kg daily by oral gavage; all 3 mouse models
# Procedure: MDAY-D2 (MDAY) murine leukemia cells (5×10^5) were injected intra-peritoneal into NOD/SCID mice (Ontario Cancer Institute, Toronto, ON), OCI-AML2 and K562 cells (2×10^6) were injected subcutaneously into both flanks of sub-lethally irradiated (3.5 Gy) NOD/SCID mice. Mice were then treated daily by oral gavages with CPX (25 mg/kg) in PBS or vehicle control. Tumour volume (tumour length×width^2×0.5236) (Mol Cancer Ther. 2004; 3:1239-1248) was measured weekly using calipers. Eight (MDAY-D2), 11 (OCI-AML2) or 30 (K562) days after injection of cells, mice were sacrificed, and the volume and weight of the tumours was measured. All animal studies were carried out according to the regulations of the Canadian Council on Animal Care and with the approval of the local ethics review board.
# Given the effects in leukemia cells lines, the effects of oral CPX was evaluated in 3 mouse models of leukemia. Sublethally irradiated NOD-SCID mice were injected subcutaneously with OCI-AML2 or K562 human leukemia cells or intraperitoneally with MDAY-D2 murine leukemia cells. […].
smiles,measurement,setting,value
"Cc1cc(C2CCCCC2)n(O)c(=O)c1 [CPX, 6-Cyclohexyl-1-hydroxy-4-methyl-2(1H)-pyridone]",effect on cell viability,leukemia cell lines,decreased cell viability in all leukemia cell lines tested; also recorded: decreased cell viability in all leukemia and lymphoma cell lines
same,cell cycle effect,[1],arrested cells in the G1/S phase of the cell cycle
same,effect on protein expression,[2],"down-regulated the expression of survivin, Cyclin D1, and the transcription factors YY1 and FTII-D"
same,inhibition of survivin transactivation (luciferase expression),survivin promoter,inhibitor of survivin transactivation
same,decrease in tumor volume compared to control,[3],up to 65%
same,decrease in tumor weight compared to control,[3],up to 65%
